# Tested on: diarrhea-predominant IBS subjects
# Experiment: 3007 Study: open-label 52-week safety study, adverse events and withdrawals
# [1] = Overall, N=536, % of appropriate gender
smiles,measurement,setting,value
"Cc1nccn1C[C@H]1CCc2c(c3cccc4c3n2CCC4)C1=O [cilansetron, (R)-(−)-4,5,6,8,9,10-hexahydro-10-[(2-methyl-1H-imidazol-1-yl)methyl]-11H-pyrido-[3,2,1-jk]-carbazol-11-one]",TEAE leading to permanent discontinuation: Dyspepsia,"Overall, N=536",2 (<1%) n (%)
same,TEAE leading to permanent discontinuation: Ear and Labyrinth Disorders,"Overall, N=536",1 (<1%) n (%)
same,TEAE leading to permanent discontinuation: Epigastric Discomfort,"Overall, N=536",1 (<1%) n (%)
same,TEAE leading to permanent discontinuation: Eructation,"Overall, N=536",1 (<1%) n (%)
same,TEAE leading to permanent discontinuation: Eye Disorders,"Overall, N=536",1 (<1%) n (%)
same,TEAE leading to permanent discontinuation: Faecal Abnormality NOS,"Overall, N=536",1 (<1%) n (%)
same,TEAE leading to permanent discontinuation: Faecal Impaction,"Overall, N=536",1 (<1%) n (%)
same,TEAE leading to permanent discontinuation: Faecal Incontinence,"Overall, N=536",1 (<1%) n (%)
same,TEAE leading to permanent discontinuation: Faeces Hard,"Overall, N=536",1 (<1%) n (%)
same,TEAE leading to permanent discontinuation: Fatigue,"Overall, N=536",4 (<1%) n (%)
same,TEAE leading to permanent discontinuation: Fibroma NOS,"Overall, N=536",1 (<1%) n (%)
same,TEAE leading to permanent discontinuation: Flatulence,"Overall, N=536",7 (1%) n (%)
same,TEAE leading to permanent discontinuation: Gastric Irritation,"Overall, N=536",1 (<1%) n (%)
same,TEAE leading to permanent discontinuation: Gastrointestinal Disorders,"Overall, N=536",64 (12%) n (%)
same,TEAE leading to permanent discontinuation: Gastrointestinal Motility Disorder NOS,"Overall, N=536",1 (<1%) n (%)
same,TEAE leading to permanent discontinuation: General Disorders and Administration Site Conditions,"Overall, N=536",7 (1%) n (%)
same,TEAE leading to permanent discontinuation: Haemorrhoidal Haemorrhage,"Overall, N=536",1 (<1%) n (%)
same,TEAE leading to permanent discontinuation: Hallucination NOS,"Overall, N=536",1 (<1%) n (%)
same,"TEAE leading to permanent discontinuation: Hallucination, Auditory","Overall, N=536",1 (<1%) n (%)
same,TEAE leading to permanent discontinuation: Headache NOS,"Overall, N=536",4 (<1%) n (%)
same,TEAE leading to permanent discontinuation: Headache NOS Aggravated,"Overall, N=536",1 (<1%) n (%)
same,TEAE leading to permanent discontinuation: Heart Rate Increased,"Overall, N=536",1 (<1%) n (%)
same,TEAE leading to permanent discontinuation: Hepatobiliary Disorders,"Overall, N=536",1 (<1%) n (%)
same,TEAE leading to permanent discontinuation: Hepatosplenomegaly NOS,"Overall, N=536",1 (<1%) n (%)
same,TEAE leading to permanent discontinuation: Hiatus Hernia,"Overall, N=536",1 (<1%) n (%)
same,TEAE leading to permanent discontinuation: Investigations,"Overall, N=536",5 (<1%) n (%)
same,TEAE leading to permanent discontinuation: Irritable Bowel Syndrome Aggravated,"Overall, N=536",1 (<1%) n (%)
same,TEAE leading to permanent discontinuation: Lethargy,"Overall, N=536",1 (<1%) n (%)
same,TEAE leading to permanent discontinuation: Metabolism and Nutrition Disorders,"Overall, N=536",1 (<1%) n (%)
same,TEAE leading to permanent discontinuation: Migraine NOS,"Overall, N=536",1 (<1%) n (%)
same,TEAE leading to permanent discontinuation: Muscle Cramps,"Overall, N=536",2 (<1%) n (%)
same,TEAE leading to permanent discontinuation: Musculoskeletal and Connective Tissue Disorders,"Overall, N=536",7 (1%) n (%)
same,TEAE leading to permanent discontinuation: Nausea,"Overall, N=536",3 (<1%) n (%)
same,"TEAE leading to permanent discontinuation: Neoplasms Benign, Malignant and Unspecified (Incl Cysts and Polyps)","Overall, N=536",5 (<1%) n (%)
same,TEAE leading to permanent discontinuation: Nervous System Disorders,"Overall, N=536",8 (1%) n (%)
same,"TEAE leading to permanent discontinuation: Pregnancy, Puerperium and Perinatal Conditions","Overall, N=536",1 (<1%) n (%)
same,TEAE leading to permanent discontinuation: Pruritus NOS,"Overall, N=536",1 (<1%) n (%)
same,TEAE leading to permanent discontinuation: Psychiatric Disorders,"Overall, N=536",1 (<1%) n (%)
same,TEAE leading to permanent discontinuation: Psychotic Disorder NOS,"Overall, N=536",1 (<1%) n (%)
same,TEAE leading to permanent discontinuation: Rash Macular,"Overall, N=536",1 (<1%) n (%)
same,TEAE leading to permanent discontinuation: Rash NOS,"Overall, N=536",1 (<1%) n (%)
same,TEAE leading to permanent discontinuation: Rectal Disorder NOS,"Overall, N=536",1 (<1%) n (%)
same,TEAE leading to permanent discontinuation: Rectal Haemorrhage,"Overall, N=536",4 (<1%) n (%)
same,TEAE leading to permanent discontinuation: Rectal Tenesmus,"Overall, N=536",1 (<1%) n (%)
same,TEAE leading to permanent discontinuation: Renal and Urinary Disorders,"Overall, N=536",1 (<1%) n (%)
same,"TEAE leading to permanent discontinuation: Respiratory, Thoracic and Mediastinal Disorders","Overall, N=536",3 (<1%) n (%)
same,TEAE leading to permanent discontinuation: Skin and Subcutaneous Tissue Disorders,"Overall, N=536",4 (<1%) n (%)
same,TEAE leading to permanent discontinuation: Somnolence,"Overall, N=536",1 (<1%) n (%)
same,TEAE leading to permanent discontinuation: Stomach Discomfort,"Overall, N=536",1 (<1%) n (%)
same,TEAE leading to permanent discontinuation: Suicidal Ideation,"Overall, N=536",1 (<1%) n (%)
same,TEAE leading to permanent discontinuation: Urticaria NOS,"Overall, N=536",1 (<1%) n (%)
same,TEAE leading to permanent discontinuation: Vertigo,"Overall, N=536",1 (<1%) n (%)
same,TEAE leading to permanent discontinuation: Visual Acuity Reduced,"Overall, N=536",1 (<1%) n (%)
same,TEAE leading to permanent discontinuation: Vomiting NOS,"Overall, N=536",1 (<1%) n (%)
same,TEAE leading to permanent discontinuation: White Blood Cells Urine Positive,"Overall, N=536",1 (<1%) n (%)
same,Total Number of Subjects with at Least One TEAE Leading to Discontinuation of Study Medication,"Overall, N=536",83 (15%) n (%)
same,TEAE leading to permanent discontinuation: Benign Ovarian Tumour*,[1],1 (<1%) n (%)
same,TEAE leading to permanent discontinuation: Breast Cancer NOS*,[1],2 (<1%) n (%)
same,TEAE leading to permanent discontinuation: Ovarian Cancer NOS*,[1],1 (<1%) n (%)
same,TEAE leading to permanent discontinuation: Ovarian Cystadenofibroma*,[1],1 (<1%) n (%)
same,TEAE leading to permanent discontinuation: Pregnancy NOS*,[1],1 (<1%) n (%)
same,TEAE: Female Reproductive Tract Infections*,"Overall, gender-specific",2 (<1%) n (%)
same,TEAE: Prostate Examination Abnormal*,"Overall, gender-specific",1 (<1%) n (%)
same,TEAE: Smear Cervix Abnormal*,"Overall, gender-specific",1 (<1%) n (%)
same,TEAE: Vaginal Candidiasis*,"Overall, gender-specific",2 (<1%) n (%)
same,TEAE: Vaginitis Bacterial NOS*,"Overall, gender-specific",1 (<1%) n (%)
same,TEAE: Vaginitis*,"Overall, gender-specific",1 (<1%) n (%)
same,TEAE: Vaginosis Fungal NOS*,"Overall, gender-specific",2 (<1%) n (%)
same,TEAE: Abdominal Therapeutic Procedures NEC,P/C group,1 (<1%) n (%)
same,TEAE: Abdominoplasty,P/C group,1 (<1%) n (%)
same,TEAE: Abnormal Chest Sounds NOS,P/C group,1 (<1%) n (%)
same,TEAE: Acne NOS,P/C group,0 n (%)
same,TEAE: Acnes,P/C group,0 n (%)
same,TEAE: Acquired Hypothyroidism,P/C group,1 (<1%) n (%)
same,TEAE: Acrochordons,P/C group,1 (<1%) n (%)
same,TEAE: Adenomyosis*,P/C group,0 n (%)
same,TEAE: Age Related Issues,P/C group,1 (<1%) n (%)
same,TEAE: Allergic Conditions NEC,P/C group,2 (<1%) n (%)
same,"TEAE: Allergies to Foods, Food Additives, Drugs and Other Chemicals",P/C group,1 (<1%) n (%)
same,TEAE: Allergy to Insect Sting,P/C group,1 (<1%) n (%)
same,TEAE: Alopecia,P/C group,1 (<1%) n (%)
same,TEAE: Alopecias,P/C group,1 (<1%) n (%)
same,TEAE: Amenorrhoea NOS*,P/C group,0 n (%)
same,TEAE: Anaemia NOS,P/C group,1 (<1%) n (%)

# Source: patent publication US20070093520A1, “Method of treatment of diarrhea-predominant irritable bowel syndrome in a subject” (priority 2005, published 2007)
